Data as given in patent US7429658B2, “Synthesis of protected pyrrolobenzodiazepines” (Spirogen Limited, priority 2003, dated 2008).

Key:
[1] = biological target: T1, Carboxypeptidase G2 (CPG2) (Pseudomonas sp., UniProt P06621); test: Carboxypeptidase G2 (CPG2) cleavage of prodrug to parent PBD imine, monitored by reversed phase HPLC; type: biochemical; conditions: 100 μM prodrug, CPG2 (1 unit), 100 mM Tris-HCl pH 7.3, 260 μM ZnCl2, 37° C.
T1 sequence (P06621 23-415): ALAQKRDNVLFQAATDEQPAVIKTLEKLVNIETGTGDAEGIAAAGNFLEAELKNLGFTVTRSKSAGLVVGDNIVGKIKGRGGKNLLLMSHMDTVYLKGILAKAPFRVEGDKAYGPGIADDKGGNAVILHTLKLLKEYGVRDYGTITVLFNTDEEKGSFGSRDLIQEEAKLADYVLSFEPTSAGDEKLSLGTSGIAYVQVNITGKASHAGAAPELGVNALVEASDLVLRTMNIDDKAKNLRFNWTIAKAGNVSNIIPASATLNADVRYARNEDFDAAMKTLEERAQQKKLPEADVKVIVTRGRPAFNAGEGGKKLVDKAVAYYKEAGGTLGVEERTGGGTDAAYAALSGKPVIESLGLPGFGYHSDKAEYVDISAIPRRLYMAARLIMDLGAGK
Method: (§1) An aliquot of a 10 mM stock solution of the carbamate monomer prodrug was diluted to 100 μM in Carboxypeptidase G2 (CPG2) assay buffer (100 mM Tris-HCl, pH 7.3; 260 μM ZnCl2). CPG2 (1 unit) was added and the reaction was incubated at 37° C. The reaction was monitored by reversed phase HPLC (C18 column, 5 μM particle size, 250 mm×4.6 mm; mobile phase 70% H2O/30% CH3CN/0.1% TFA; detection at 245 nM) with 20 μL aliquots being injected at 0, 10, 20, 30, 40, 50 and 60 min. The conversion of the prodrug to the parent imine 30 was complete in 60 minutes.
as §1, with “carbamate dimer” for “carbamate monomer”, “0, 15,” for “0, 10, 20,”, “30, 45, 60” for “30, 40, 50”, “and 75” for “and 60”, “imine 61” for “imine 30”, “in 75 min.” for “in 60 minutes.”

[2] = Photolytic deprotection of N-10 protected PBD (irradiation at 365 nM), monitored by reversed phase HPLC; type: physicochemical; conditions: 0.25 g in MeOH (10 mL) irradiated at 365 nM; HPLC at 1 h intervals against standard of parent PBD 30
Method: A solution of the N-10 protected PBD (0.25 g) in MeOH (10 mL was irradiated at 365 nM. The reaction was monitored by reversed phase HPLC (C18 column, 5 μM particle size, 250 mm×4.6 mm; mobile phase 70% H2O/30% CH3CN/0.1% TFA; detection at 245 nM) against a standard sample of the parent PBD 30. Aliquots of the reaction mixture (20 μL) were injected at 1 h intervals. The conversion to parent PBD was complete in 12 h.

Q: Which “conversion of the prodrug to the parent imine 30 complete in” value ([1]; HPLC aliquots every 10 min to 60 min) does the source give for `COc1cc2c(cc1OC)N(C(=O)OCc1ccc(OC(=O)N[C@@H](CCC(=O)O)C(=O)O)cc1)[C@@H](O)[C@@H]1CCCN1C2=O` [Compound 46, 2-[4-((11S,11aS)-7,8-Dimethoxy-11-hydroxy-5-oxo-1,2,3,10,11,11a-hexahydro-5H-pyrrolo[2,1-c][1,4]benzodiazepine-10-carbonyloxymethyl)-phenoxycarbonylamino]-pentanedioic acid] here?
A: The value was ≤ 60 min.

Q: For `COc1cc2c(cc1OCCCCCOc1cc3c(cc1OC)C(=O)N1CCC[C@H]1[C@H](O)N3C(=O)OCc1ccc(OC(=O)N[C@@H](CCC(=O)O)C(=O)O)cc1)N(C(=O)OCc1ccc(OC(=O)N[C@@H](CCC(=O)O)C(=O)O)cc1)[C@@H](O)[C@@H]1CCCN1C2=O` [Compound 68, 1,1′-[[Pentane-1,5-diyl]dioxy]bis[(11S,11aS)-10-[N-(4-(L-glutamylcarbonyloxy)benzyloxycarbonyl)]-11-hydroxy-7-methoxy-1,2,3,10,11,11a-hexahydro-5H-pyrrolo[2,1-c][1,4]benzodiazepine-5-one]], which “conversion of the prodrug to the parent imine 61 complete in” value ([1]; HPLC aliquots every 15 min to 75 min) is on record?
A: The value was ≤ 75 min.

Q: With `COc1cc(COC(=O)N2c3cc(OC)c(OC)cc3C(=O)N3CCC[C@H]3[C@@H]2O)c([N+](=O)[O-])cc1OC` [Compound 28, (11S,11aS)-7,8-Dimethoxy-11-hydroxy-5-oxo-1,2,3,10,11,11a-hexahydro-5H-pyrrolo[2,1-c][1,4]benzodiazepine-10-carboxylic acid 4,5-dimethoxy-2-nitro-benzyl ester] as the compound, how does the “conversion to parent PBD complete in” value [2] read?
A: The value was ≤ 12 h.
